# Target: YKL-40 (Homo sapiens (Human), UniProt P36222)
# Assay: YKL-40:4 assay, competitive chitin binding site AlphaScreen
# Conditions: competition with biotinylated compound 4 (20 nM), YKL-40-histag 2.5 nM
# Chain of YKL-40 (P36222 22-383): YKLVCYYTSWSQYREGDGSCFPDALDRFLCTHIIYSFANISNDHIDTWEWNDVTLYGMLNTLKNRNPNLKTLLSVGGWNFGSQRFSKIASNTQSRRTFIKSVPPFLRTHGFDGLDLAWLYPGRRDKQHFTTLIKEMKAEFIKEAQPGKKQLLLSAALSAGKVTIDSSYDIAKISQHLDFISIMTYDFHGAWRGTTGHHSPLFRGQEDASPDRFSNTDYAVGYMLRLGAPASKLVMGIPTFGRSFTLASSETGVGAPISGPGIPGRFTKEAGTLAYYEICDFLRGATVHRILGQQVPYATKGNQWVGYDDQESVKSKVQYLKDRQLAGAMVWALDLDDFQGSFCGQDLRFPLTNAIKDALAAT
row,Compound,IC50
1,"C[C@H](O)CN1C[C@H](Cc2ccc(Cl)cc2)N(C2CCN(c3ccccn3)CC2)C[C@@H]1C [compound 104, (S)-1-((2S,5S)-5-(4-chlorobenzyl)-2-methyl-4-(1-(pyridin-2-yl)piperidin-4-yl)piperazin-1-yl)propan-2-ol 2,2,2-trifluoroacetate]",< 0.1 µM
2,"C[C@H](O)[C@H]1CN(C2CCN(c3ccccn3)CC2)[C@@H](Cc2ccc(Cl)cc2)CN1C [compound 105, (S)-1-((2R,5S)-5-(4-chlorobenzyl)-1-methyl-4-(1-(pyridin-2-yl)piperidin-4-yl)piperazin-2-yl)ethan-1-ol 2,2,2-trifluoroacetate]",< 0.1 µM
3,"CO[C@H](C)CN1C[C@H](Cc2ccc(Cl)cc2)N(C2CCN(c3ccccn3)CC2)C[C@@H]1C [compound 107, (2S,5S)-2-(4-chlorobenzyl)-4-((R)-2-methoxypropyl)-5-methyl-1-(1-(pyridin-2-yl)piperidin-4-yl)piperazine 2,2,2-trifluoroacetate]",0.1 to 1 µM
4,"CO[C@@H]1CCN(C2CCN(c3ccccn3)CC2)[C@@H](Cc2ccc(Cl)cc2)C1 [compound 108, (2S,4R)-2-(4-chlorobenzyl)-4-methoxy-1′-(pyridin-2-yl)-1,4′-bipiperidine 2,2,2-trifluoroacetate]",< 0.1 µM
5,"CO[C@H]1CCN(C2CCN(c3ccccn3)CC2)[C@@H](Cc2ccc(Cl)cc2)C1 [compound 109, (2S,4S)-2-(4-chlorobenzyl)-4-methoxy-1′-(pyridin-2-yl)-1,4′-bipiperidine 2,2,2-trifluoroacetate]",0.1 to 1 µM
6,"C[C@@H](O)[C@H]1CN(C2CCN(c3ccccn3)CC2)[C@@H](Cc2ccc(Cl)cc2)CN1C [compound 110, (R)-1-((2R,5S)-5-(4-chlorobenzyl)-1-methyl-4-(1-(pyridin-2-yl)piperidin-4-yl)piperazin-2-yl)ethan-1-ol]",< 0.1 µM
7,"C[C@H]1CN(C2CCN(c3cc(Br)ccn3)CC2)[C@@H](Cc2ccc(Cl)cc2)CO1 [compound 113, (2S,5S)-4-(1-(4-bromopyridin-2-yl)piperidin-4-yl)-5-(4-chlorobenzyl)-2-methylmorpholine 2,2,2-trifluoroacetate]",0.1 to 1 µM
8,"C[C@H]1CN(C2CCN(c3ncccc3C(N)=O)CC2)[C@@H](Cc2ccc(Cl)cc2)CO1 [compound 114, 2-(4-((2S,5S)-5-(4-chlorobenzyl)-2-methylmorpholino)piperidin-1-yl)nicotinamide 2,2,2-trifluoroacetate]",> 100 µM
9,"C[C@H]1CN(C2CCN(c3cc(Cl)ccc3C#N)CC2)[C@@H](Cc2ccc(Cl)cc2)CO1 [compound 115, 4-chloro-2-(4-((2S,5S)-5-(4-chlorobenzyl)-2-methylmorpholino)piperidin-1-yl)benzonitrile 2,2,2-trifluoroacetate]",> 100 µM
10,"C[C@H]1CN(C2CCN(c3nccc4ccccc34)CC2)[C@@H](Cc2ccc(Cl)cc2)CO1 [compound 116, (2S,5S)-5-(4-chlorobenzyl)-4-(1-(isoquinolin-1-yl)piperidin-4-yl)-2-methylmorpholine 2,2,2-trifluoroacetate]",> 100 µM
11,"COC(=O)c1cccnc1N1CCC(N2C[C@H](C)OC[C@@H]2Cc2ccc(Cl)cc2)CC1 [compound 117, methyl 2-(4-((2S,5S)-5-(4-chlorobenzyl)-2-methylmorpholino)piperidin-1-yl)nicotinate 2,2,2-trifluoroacetate]",> 100 µM
12,"C[C@H]1CN(C2CCN(c3c(F)cccc3C#N)CC2)[C@@H](Cc2ccc(Cl)cc2)CO1 [compound 118, 2-(4-((2S,5S)-5-(4-chlorobenzyl)-2-methylmorpholino)piperidin-1-yl)-3-fluorobenzonitrile 2,2,2-trifluoroacetate]",> 100 µM
13,"C[C@H]1CN(C2CCN(c3ccccc3C#N)CC2)[C@@H](Cc2ccc(Cl)cc2)CO1 [compound 119, 2-(4-((2S,5S)-5-(4-chlorobenzyl)-2-methylmorpholino)piperidin-1-yl)benzonitrile 2,2,2-trifluoroacetate]",> 100 µM
14,"C[C@H]1CN(C2CCN(c3ncccc3CO)CC2)[C@@H](Cc2ccc(Cl)cc2)CO1 [compound 120, (2-(4-((2S,5S)-5-(4-chlorobenzyl)-2-methylmorpholino)piperidin-1-yl)pyridin-3-yl)methanol 2,2,2-trifluoroacetate]",> 100 µM
15,"COC(=O)c1ccnc(F)c1N1CCC(N2C[C@H](C)OC[C@@H]2Cc2ccc(Cl)cc2)CC1 [compound 121, methyl 3-(4-((2S,5S)-5-(4-chlorobenzyl)-2-methylmorpholino)piperidin-1-yl)-2-fluoroisonicotinate]",> 100 µM
16,"COC(=O)c1ccnc(N2CCC(N3C[C@H](C)OC[C@@H]3Cc3ccc(Cl)cc3)CC2)c1F [compound 122, methyl 2-(4-((2S,5S)-5-(4-chlorobenzyl)-2-methylmorpholino)piperidin-1-yl)-3-fluoroisonicotinate]",> 100 µM
17,"C[C@H]1CN(C2CCN(c3c(F)cccc3F)CC2)[C@@H](Cc2ccc(Cl)cc2)CO1 [compound 123, (2S,5S)-5-(4-chlorobenzyl)-4-(1-(2,6-difluorophenyl)piperidin-4-yl)-2-methylmorpholine 2,2,2-trifluoroacetate]",> 100 µM
18,"COC(=O)c1ccnc(N2CCC(N3C[C@H](C)OC[C@@H]3Cc3ccc(Cl)cc3)CC2)c1 [compound 124, methyl 2-(4-((2S,5S)-5-(4-chlorobenzyl)-2-methylmorpholino)piperidin-1-yl)isonicotinate]",> 100 µM
19,"C[C@H]1CN(C2CCN(c3cc(C(=O)O)ccn3)CC2)[C@@H](Cc2ccc(Cl)cc2)CO1 [compound 125, 2-(4-((2S,5S)-5-(4-chlorobenzyl)-2-methylmorpholino)piperidin-1-yl)isonicotinic acid 2,2,2-trifluoroacetate]",> 100 µM
20,"C[C@H]1CN(C2CCN(c3ccccc3F)CC2)[C@@H](Cc2ccc(Cl)cc2)CO1 [compound 126, (2S,5S)-5-(4-chlorobenzyl)-4-(1-(2-fluorophenyl)piperidin-4-yl)-2-methylmorpholine 2,2,2-trifluoroacetate]",> 100 µM
21,"C[C@H]1CN(C2CCN(c3cccc(F)c3)CC2)[C@@H](Cc2ccc(Cl)cc2)CO1 [compound 127, (2S,5S)-5-(4-chlorobenzyl)-4-(1-(3-fluorophenyl)piperidin-4-yl)-2-methylmorpholine 2,2,2-trifluoroacetate]",> 100 µM
22,"C[C@H]1CN(C2CCN(c3nccc(C(=O)O)c3F)CC2)[C@@H](Cc2ccc(Cl)cc2)CO1 [compound 128, 2-(4-((2S,5S)-5-(4-chlorobenzyl)-2-methylmorpholino)piperidin-1-yl)-3-fluoroisonicotinic acid 2,2,2-trifluoroacetate]",> 100 µM
23,"C[C@H]1CN(C2CCN(c3c(C(=O)O)ccnc3F)CC2)[C@@H](Cc2ccc(Cl)cc2)CO1 [compound 129, 3-(4-((2S,5S)-5-(4-chlorobenzyl)-2-methylmorpholino)piperidin-1-yl)-2-fluoroisonicotinic acid]",> 100 µM
24,"C[C@H]1CN(C2CCN(c3cc(CO)ccn3)CC2)[C@@H](Cc2ccc(Cl)cc2)CO1 [compound 130, (2-(4-((2S,5S)-5-(4-chlorobenzyl)-2-methylmorpholino)piperidin-1-yl)pyridin-4-yl)methanol 2,2,2-trifluoroacetate]",> 100 µM

# From US20230278996A1, “YKL-40 INHIBITORS AND THEIR THERAPEUTIC APPLICATIONS” (Molecure S.A., priority 2022, published 2023)
